Legend:
Assay type in all cases: cell-based
S. enterica 25928 = test: Disk diffusion test; conditions: complex 5 μg, 24 h incubation; diameter including disk (6 mm)
Description: (§1) To evaluate the antibacterial potential of gold derivatives, […] bacterial strains were selected: E. coli, P. aeruginosa, S. enterica, E. faecalis, L. monocytogenes, S. epidermidis, S. aureus. Dis diffusion assay was performed following Clinical & Laboratory Standards Institute (CLSI) recommendations. Active cultures (0.5 McFarland) from all strains were spread onto Mueller–Hinton Agar (MHA, Oxoid, Basingstoke, UK) and disks impregnated with 10 µL of each gold complex or control (DMSO for negative control, phenol for positive control) were placed. Plates were and incubated for 22 h ± 2 h at 37 °C ± 1 °C and then the diameter of the inhibition zone was determined.

E. coli 8739 = test: Disk diffusion test; conditions: complex 5 μg, 24 h incubation; diameter including disk (6 mm)
Description: To evaluate the antibacterial potential of gold derivatives, six bacterial strains were selected: E. coli, P. aeruginosa, S. enterica, E. faecalis, L. monocytogenes, S. epidermidis, S. aureus. Dis diffusion assay was performed following Clinical & Laboratory Standards Institute (CLSI) recommendations. […] Plates were and incubated for 22 h ± 2 h at 37 °C ± 1 °C and then the diameter of the inhibition zone was determined.

[1] = system: panel of Gram-positive and Gram-negative strains; test: Disk diffusion method, whole panel (summary in words); conditions: whole panel, Gram-positive and Gram-negative strains
Description: as §1
Given that NHC-gold derivatives might display antibacterial activity, we evaluated the antibacterial effect of the complexes toward a panel of Gram-positive and Gram-negative strains using the disk diffusion method. The selected strains are human pathogen or commensal bacteria and the results are summarized on Table 1.

E. coli = test: Scanning electron microscopy of treated E. coli; conditions: E. coli treated at 1/2× MIC and MIC, 24 h
Description: 500 μL of a E. coli culture (10^7 CFU mL^−^1) were added per well to a 12-well plate and were further treated with the complex 1b at its MIC and 1/2× MIC. A positive control of bacteria without any treatment and a negative control of only culture medium were included, following the same protocol as the rest of the conditions. Then, the plate was incubated at 37 °C with mild agitation for 24 h. After this time, the bacterial suspensions were transfered into 1.5 mL centrifugation tubes. Then, the bacteria were washed and fixed using glutaraldehyde 2.5% in phosphate buffer 10 mM at pH 7.2, with 2 h incubation. Then, bacteria were gradually dehydrated using EtOH solutions at different v/v% (25, 50, 75 and 100). 10 µL of the dehydrated bacteria solution was placed on a 5 × 5 mm Si waffle, left to dry and coated with a thin layer of carbon.

SMILES: Cn1cc[n+](C)[c]1[Au-][C]#CCOc1c(-c2ccc(Br)cc2)oc2ccccc2c1=O [1b, [Au(Lb)(IMe)] (R = Br; IMe = C5H10N2)]
- Inhibition Zone (S. enterica 25928): 8.90 ± 1.56 mm
- Inhibition Zone (E. coli 8739): 11.10 ± 0.08 mm
- antibacterial effect (in words) [1]: able to interfere with the development of both Gram positive and Gram negative strains
- cell morphology by SEM (E. coli): rougher surface of bacteria, with the presence of wrinkles and creases
- size (length) of bacteria by SEM (E. coli): shrinking of bacteria, which is concentration dependent
